In patent US11787780B2 (CORCEPT THERAPEUTICS INCORPORATED, priority 2020, dated 2023):

Tests used:
[1] = target: glucocorticoid receptor (GR) recombinant ligand binding domain (LBD) (Homo sapiens (Human), UniProt P04150); assay: GR binding fluorescence polarisation (FP) assay; details: displacement of fluorescently tagged ligand
Procedure: Binding of test compounds to the glucocorticoid receptor (GR) is determined using a fluorescence polarisation (FP) assay utilising a recombinant ligand binding domain (LBD) of GR. The test compounds are assessed by their ability to displace a fluorescently tagged ligand and detection of the resulting decrease in fluorescence polarisation.

[2] = system: induction of TAT by dexamethasone in HepG2 cells; assay: Hep G2 TAT assay (inhibition of dexamethasone-induced TAT); format: cell-based, human; details: challenge of 100 nM dexamethasone, IC50 converted to Ki by Cheng and Prusoff equation

glucocorticoid receptor (GR) recombinant ligand binding domain (LBD), sequence (P04150 524-758): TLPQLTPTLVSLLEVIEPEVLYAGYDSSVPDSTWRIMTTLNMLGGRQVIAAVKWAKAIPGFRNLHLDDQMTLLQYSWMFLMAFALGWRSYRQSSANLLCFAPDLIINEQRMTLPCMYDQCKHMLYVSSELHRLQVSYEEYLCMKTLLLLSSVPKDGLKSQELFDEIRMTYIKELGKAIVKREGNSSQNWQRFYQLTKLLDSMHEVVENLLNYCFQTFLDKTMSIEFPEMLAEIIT

Row | SMILES | IC50 [1] [µM] | Ki [2] [µM]
1 | Cc1cc2c(cnn2-c2ccc(F)cc2)cc1N1CCC(C)(NS(=O)(=O)c2cnn(C)c2)CC1 [Example 131] | 0.004 | 0.098
2 | Cc1cc2c(cnn2-c2ccc(F)cc2)cc1C1(Cc2ccc(C(F)F)nc2)CCN(S(=O)(=O)c2cnn(C)c2)C1 (centres unmarked) [Example 171] | 0.067 | 0.171
3 | Cc1cc2c(cnn2-c2ccn(C)n2)cc1C1(Cc2ccccc2)CCN(S(=O)(=O)c2cnn(C)n2)C1 (centres unmarked) [Example 259, 5-(3-benzyl-1-((2-methyl-2H-1,2,3-triazol-4-yl)sulfonyl)pyrrolidin-3-yl)-6-methyl-1-(1-methyl-1H-pyrazol-3-yl)-1H-indazole] | 0.18 | 0.54
4 | CCCn1cc(S(=O)(=O)N2CCC(CC)(c3cc4cnn(-c5ccc(F)cc5)c4cc3C)C2)cn1 (centres unmarked) [Example 168] | 0.006 | 0.067
5 | Cc1cc2c(cnn2-c2ccc(=O)n(C)c2)cc1C1(Cc2ccccc2)CCN(S(=O)(=O)c2cccnc2)C1 (centres unmarked) [Example 286, 5-(5-(3-benzyl-1-(pyridin-3-ylsulfonyl)pyrrolidin-3-yl)-6-methyl-1H-indazol-1-yl)-1-methylpyridin-2(1H)-one] | 0.011 | 0.052
6 | CC(=O)N1CCC(S(=O)(=O)N2CCC(Cc3ccccc3)(c3cc4cnn(-c5ccc(F)cc5)c4cc3C)C2)CC1 (centres unmarked) [Example 325, 1-(4-((3-benzyl-3-(1-(4-fluorophenyl)-6-methyl-1H-indazol-5-yl)pyrrolidin-1-yl)sulfonyl)piperidin-1-yl)ethan-1-one] | 0.028 | 0.11
7 | Cc1cc2c(cnn2-c2ccnn2C)cc1C1(Cc2ccccc2)CCN(S(=O)(=O)c2cnn(C)n2)C1 (centres unmarked) [Example 260, 5-(3-benzyl-1-((2-methyl-2H-1,2,3-triazol-4-yl)sulfonyl)pyrrolidin-3-yl)-6-methyl-1-(1-methyl-1H-pyrazol-5-yl)-1H-indazole] | 0.15 | 0.35
8 | Cc1cc2c(cnn2-c2ccc(=O)n(C)c2)cc1C1(Cc2ccccc2)CCN(S(=O)(=O)c2ccc(F)c(F)c2)C1 (centres unmarked) [Example 287, 5-(5-(3-benzyl-1-((3,4-difluorophenyl)sulfonyl)pyrrolidin-3-yl)-6-methyl-1H-indazol-1-yl)-1-methylpyridin-2(1H)-one] | 0.0067 | 0.025
9 | Cc1cc2c(cnn2-c2ccc(F)cc2)cc1N1CCC(C)(NS(=O)(=O)c2cnn(CC3CC3)c2)CC1 [Example 133] | 0.007 | 0.05
10 | Cc1cc2c(cnn2-c2ccc(F)cc2)cc1C1(Cc2ccccc2)CCN(S(=O)(=O)C2CC2)C1 (centres unmarked) [Example 155] | 0.013 | 0.016
11 | COc1cc2c(cnn2-c2ccc(=O)n(C)c2)cc1C1(Cc2ccccc2)CCN(S(=O)(=O)c2cnn(C)n2)C1 (centres unmarked) [Example 265, 5-(5-(3-benzyl-1-((2-methyl-2H-1,2,3-triazol-4-yl)sulfonyl)pyrrolidin-3-yl)-6-methoxy-1H-indazol-1-yl)-1-methylpyridin-2(1H)-one] | 0.016 | 0.12
12 | Cc1cc2c(cnn2-c2ccc(F)cc2)cc1C1(Cc2ccccc2)CCN(S(=O)(=O)C2CCOCC2)C1 (centres unmarked) [Example 156] | 0.011 | 0.036
13 | Cc1cc2c(cnn2-c2ccc(F)cc2)cc1N1CCN(S(=O)(=O)c2cnn(C(C)C)n2)C2(CC2)C1 [Example 68] | 0.035 | 0.03
14 | Cc1cc2c(cnn2-c2ccc(=O)n(C)c2)cc1C1(Cc2ccccc2)CCN(S(=O)(=O)c2cc(F)ccc2F)C1 (centres unmarked) [Example 316, 5-(5-(3-benzyl-1-((2,5-difluorophenyl)sulfonyl)pyrrolidin-3-yl)-6-methyl-1H-indazol-1-yl)-1-methylpyridin-2(1H)-one] | 0.012 | 0.032
15 | C[C@@H]1CN(S(=O)(=O)c2cnn(C)c2)CCN1c1ccc2c(cnn2-c2ccc(F)cc2)c1 [Example 1, (R)-1-(4-fluorophenyl)-5-(2-methyl-4-((1-methyl-1H-pyrazol-4-yl)sulfonyl)piperazin-1-yl)-1H-indazole] | 0.93 | 0.594
16 | Cc1cc2c(cnn2-c2ccc(=O)n(C)c2)cc1C1(Cc2ccccc2)CCN(S(=O)(=O)c2ccnn2C)C1 (centres unmarked) [Example 293, 5-(5-(3-benzyl-1-((1-methyl-1H-pyrazol-5-yl)sulfonyl)pyrrolidin-3-yl)-6-methyl-1H-indazol-1-yl)-1-methylpyridin-2(1H)-one] | 0.0061 | 0.1
17 | COc1cc2c(cnn2-c2ccc(F)c(C#N)c2)cc1C1(Cc2ccccc2)CCN(S(=O)(=O)c2cnn(C)n2)C1 (centres unmarked) [Example 243, 5-(5-(3-benzyl-1-((2-methyl-2H-1,2,3-triazol-4-yl)sulfonyl)pyrrolidin-3-yl)-6-methoxy-1H-indazol-1-yl)-2-fluorobenzonitrile] | 0.065 | 0.038

Row | SMILES | IC50 [1] [µM] | Ki [2] [µM]
18 | Cc1cc2c(cnn2-c2ccc(F)cc2)cc1C1(Cc2ccccc2)CCN(S(C)(=O)=O)C1=O (centres unmarked) [Example 339, 3-benzyl-3-(1-(4-fluorophenyl)-6-methyl-1H-indazol-5-yl)-1-(methylsulfonyl)pyrrolidin-2-one] | 0.044 | 0.12
19 | CCCn1cc(S(=O)(=O)N2CCN(c3ccc4c(cnn4-c4ccc(F)cc4)c3)CC23CC3)cn1 [Example 50] | 0.027 | 0.48
20 | CCCn1cc(S(=O)(=O)N2CC[C@H](c3ccc4c(cnn4-c4ccc(F)cc4)c3)C[C@H]2C)cn1 [Example 10, 1-(4-fluorophenyl)-5-((2R,4S)-2-methyl-1-((1-propyl-1H-pyrazol-4-yl)sulfonyl)piperidin-4-yl)-1H-indazole] | 0.214 | 0.238
21 | Cc1cc2c(cnn2-c2ccc(=O)n(C)c2)cc1C1(Cc2ccccc2)CCN(S(=O)(=O)c2ccc(Cl)cc2C#N)C1 (centres unmarked) [Example 313, 2-((3-benzyl-3-(6-methyl-1-(1-methyl-6-oxo-1,6-dihydropyridin-3-yl)-1H-indazol-5-yl)pyrrolidin-1-yl)sulfonyl)-5-chlorobenzonitrile] | 0.0083 | 0.05
22 | Cc1cc2c(cnn2-c2ccc(F)cc2)cc1N1CCC[C@H](N(C)S(=O)(=O)c2cnn(C)c2)C1 [Example 124] | 0.058 | 0.216
23 | Cc1cc2c(cnn2-c2ccc(F)cc2)cc1C1(Cc2ccccc2)CCN(S(=O)(=O)c2cncs2)C1 (centres unmarked) [Example 154] | 0.269 | 0.014
24 | CS(=O)(=O)N1CCC(Cc2ccccc2)(c2ccc3c(cnn3-c3ccc(F)cc3)c2)C1=O (centres unmarked) [Example 338, 3-benzyl-3-(1-(4-fluorophenyl)-1H-indazol-5-yl)-1-(methylsulfonyl)pyrrolidin-2-one] | 0.026 | 0.12
25 | COc1cc2c(cnn2-c2ccc(F)cc2)cc1C1(Cc2ccccc2)CCN(C(=O)c2cncs2)C1 (centres unmarked) [Example 231, (3-benzyl-3-(1-(4-fluorophenyl)-6-methoxy-1H-indazol-5-yl)pyrrolidin-1-yl)(thiazol-5-yl)methanone] | 0.013 | 0.048
26 | Cc1cc2c(cnn2-c2ccc(=O)n(C)c2)cc1C1(Cc2ccccc2)CCN(S(=O)(=O)C2CC2)C1 (centres unmarked) [Example 289, 5-(5-(3-benzyl-1-(cyclopropylsulfonyl)pyrrolidin-3-yl)-6-methyl-1H-indazol-1-yl)-1-methylpyridin-2(1H)-one] | 0.013 | 0.069
27 | Cc1cc2c(cnn2-c2ccc(=O)n(C)c2)cc1C1(Cc2ccccc2)CCN(S(=O)(=O)c2ccc(C(F)(F)F)nc2)C1 (centres unmarked) [Example 292, 5-(5-(3-benzyl-1-((6-(trifluoromethyl)pyridin-3-yl)sulfonyl)pyrrolidin-3-yl)-6-methyl-1H-indazol-1-yl)-1-methylpyridin-2(1H)-one] | 0.014 | 0.11
28 | CCCn1cc(S(=O)(=O)N2CCC(c3cc4cnn(-c5ccc(F)cc5)c4cc3C)CC2)cn1 [Example 6, 1-(4-fluorophenyl)-6-methyl-5-(1-((1-propyl-1H-pyrazol-4-yl)sulfonyl)piperidin-4-yl)-1H-indazole] | 0.148 | 0.118
29 | Cc1cc2c(cnn2-c2ccc(F)cc2)cc1C1(Cc2ccccc2)CCN(Cc2ccccc2)C1=O (centres unmarked) [Example 337, 1,3-dibenzyl-3-(1-(4-fluorophenyl)-6-methyl-1H-indazol-5-yl)pyrrolidin-2-one] | 0.25 | 0.11
30 | Cc1cc2c(cnn2-c2ccc(F)cc2)cc1C1(Cc2ccc(F)cc2)CCN(S(C)(=O)=O)C1 (centres unmarked) [Example 174] | 0.009 | 0.028
31 | CCc1cc(-n2ncc3cc(C4(Cc5ccccc5)CCN(S(=O)(=O)c5cnn(C)n5)C4)c(C)cc32)cn(C)c1=O (centres unmarked) [Example 263, 5-(5-(3-benzyl-1-((2-methyl-2H-1,2,3-triazol-4-yl)sulfonyl)pyrrolidin-3-yl)-6-methyl-1H-indazol-1-yl)-3-ethyl-1-methylpyridin-2(1H)-one] | 0.11 | 0.1
32 | Cc1cc2c(cnn2-c2cnn(C3COC3)c2)cc1C1(Cc2ccccc2)CCN(S(=O)(=O)c2cnn(C)n2)C1 (centres unmarked) [Example 264, 5-(3-benzyl-1-((2-methyl-2H-1,2,3-triazol-4-yl)sulfonyl)pyrrolidin-3-yl)-6-methyl-1-(1-(oxetan-3-yl)-1H-pyrazol-4-yl)-1H-indazole] | 0.026 | 0.21
33 | CCCn1cc(NS(=O)(=O)C2CCN(c3cc4cnn(-c5ccc(F)cc5)c4cc3C)C2)cn1 (centres unmarked) [Example 29, 1-(1-(4-fluorophenyl)-6-methyl-1H-indazol-5-yl)-N-(1-propyl-1H-pyrazol-4-yl)pyrrolidine-3-sulfonamide] | 0.009 | 0.21
34 | CCCn1cc(S(=O)(=O)N2CCC(c3ccc4c(cnn4-c4ccc(F)cc4)c3)C[C@H]2C)cn1 (stereo partly drawn) [Example 8, 1-(4-fluorophenyl)-5-((2R)-2-methyl-1-((1-propyl-1H-pyrazol-4-yl)sulfonyl)piperidin-4-yl)-1H-indazole] | 0.214 | 0.238
